In patent US6464978B1, “Vaccination and methods against multiple sclerosis resulting from pathogenic responses by specific T cell populations” (The Immune Response Corporation, priority 1989, dated 2002):
“And” between values parts separate entries of the source, which are not always exact repeats. Equal entries are not always repeated. “Also recorded” adds a separate entry of the source.

How the values were obtained:
[1] = tested on: EAE; experiment: Vaccination against EAE in the Lewis rat model, daily clinical scoring after MBP challenge; type: in vivo, Lewis rats; set-up: key to EAE clinical score, Days After Challenge 18 / EAE clinical score, Days After Challenge 10 / EAE clinical score, Days After Challenge 11 / EAE clinical score, Days After Challenge 12 / EAE clinical score, Days After Challenge 13 / EAE clinical score, Days After Challenge 14 / EAE clinical score, Days After Challenge 15 / EAE clinical score, Days After Challenge 16 / EAE clinical score, Days After Challenge 17 / EAE clinical score, Days After Challenge 19 / EAE clinical score, Days After Challenge 20: —: no signs; 1: limp tail; 2: hind leg weakness; 3: hind leg paralysis; details: for EAE clinical score, Days After Challenge 10: day 10; for EAE clinical score, Days After Challenge 11: day 11; for EAE clinical score, Days After Challenge 12: day 12; for EAE clinical score, Days After Challenge 13: day 13; for EAE clinical score, Days After Challenge 14: day 14; for EAE clinical score, Days After Challenge 15: day 15; for EAE clinical score, Days After Challenge 16: day 16; for EAE clinical score, Days After Challenge 17: day 17; for EAE clinical score, Days After Challenge 18: day 18
Protocol: Female Lewis rats, (Charles River Laboratories, Raleigh-Durham, N.C.) were immunized in each hind foot pad with 50 μg of guinea pig myelin basic protein emulsified in complete Freund's adjuvant. The first signs of disease were typically observed 9-11 days post-immunization. Disease severity is scored on a three point scale as follows: 1=limp tail; 2=hind leg weakness; 3=hind leg paralysis. Following a disease course of approximately four to six days, most rats spontaneously recovered and were refractory to subsequent EAE induction.
[…]. KLH-VDJ conjugate was administered at a dose equivalent to 10 μg of KLH per rat. Twenty-nine days later each rat was challenged with 50 μg of guinea pig myelin basic protein in complete Freund's adjuvant in the front footpads. Animals were monitored daily beginning at day 9 for clinical, signs of EAE and were scored as described above.
The preparation, administration and evaluation of these vaccines were conducted as described in Examples I through III with the following exceptions: 50 μg of the individual VDJ peptides were incorporated into vaccine formulations containing CFA; neither vaccinations in IFA nor vaccinations with peptides conjugated to KLH were conducted. Control animals were untreated prior to MBP challenge as in Example III or were vaccinated with emulsions of PBS and CFA to assess the protective effect of adjuvant alone. […]

[2] = tested on: EAE; experiment: Histologic examination of the CNS of vaccinated, MBP-challenged rats; type: in vivo; details: Lewis rats, 50 μg peptide in CFA, MBP challenge
Text: Disease was characterized by severe paralysis and wasting, persisted for 4 to 6 days and spontaneously remitted.
Even sub-clinical signs of disease were abrogated.

[3] = Lewis rats, 50 μg peptide in CFA, MBP challenge
[4] = one rat per line, 50 μg Vβ8 peptide in CFA
[5] = one rat per line, 5 μg VDJ or KLH-VDJ equivalent to 10 μg KLH, in IFA or CFA, hind footpads, MBP challenge 29 days later
[6] = one rat per line, 50 μg rat VDJ peptide in CFA
[7] = one rat per line, 50 μg JαTA39 peptide in CFA

DMGHGLRLIHYSYDVNSTEK [IR7]
onset, severity and duration of EAE [1, 3]: Delayed onset as well as decreased severity and duration of disease was observed in one animal | protection against clinical EAE (animals protected) [1, 3]: One animal was completely protected | EAE clinical score, Days After Challenge 10 [1, 4]: — | EAE clinical score, Days After Challenge 11 [1, 4]: — | EAE clinical score, Days After Challenge 12 [1, 4]: 1 and — (2×) | EAE clinical score, Days After Challenge 13 [1, 4]: 2 and — (2×) | EAE clinical score, Days After Challenge 14 [1, 4]: 3 and 1 and — | EAE clinical score, Days After Challenge 15 [1, 4]: 3 and 1 and — | EAE clinical score, Days After Challenge 16 [1, 4]: 3 and — (2×) | EAE clinical score, Days After Challenge 17 [1, 4]: — | EAE clinical score, Days After Challenge 18 [1, 4]: —

SGDAGGGYE [VDJ (CFA), free VDJ peptide in PBS emulsified with complete Freund's adjuvant]
EAE clinical score, Days After Challenge 10 [1, 5]: — | EAE clinical score, Days After Challenge 11 [1, 5]: — | EAE clinical score, Days After Challenge 12 [1, 5]: — | EAE clinical score, Days After Challenge 13 [1, 5]: 1 and — (2×) | EAE clinical score, Days After Challenge 14 [1, 5]: 3 and 1 and — | EAE clinical score, Days After Challenge 15 [1, 5]: 3 and 1 and — | EAE clinical score, Days After Challenge 16 [1, 5]: 3 and 1 and — | EAE clinical score, Days After Challenge 17 [1, 5]: 2 and — (2×) | EAE clinical score, Days After Challenge 18 [1, 5]: —

A S S D - S S N T E (ASSDSSNTE) [IR9b]
protection against clinical EAE (animals protected) [1, 3]: complete protection in all four animals | EAE clinical score, Days After Challenge 10 [1, 6]: — | EAE clinical score, Days After Challenge 11 [1, 6]: — | EAE clinical score, Days After Challenge 12 [1, 6]: — | EAE clinical score, Days After Challenge 13 [1, 6]: — | EAE clinical score, Days After Challenge 14 [1, 6]: — | EAE clinical score, Days After Challenge 15 [1, 6]: — | EAE clinical score, Days After Challenge 16 [1, 6]: — | EAE clinical score, Days After Challenge 17 [1, 6]: — | EAE clinical score, Days After Challenge 18 [1, 6]: — | histologic lesions / T cell infiltration of the CNS [2]: no histologic lesions characteristic of disease were found in any of the four animals

C A S S D - S G N T E V F F G K (CASSDSGNTEVFFGK) [IR2]
onset, severity and duration of EAE [1, 3]: delays in onset were observed in some; also recorded: others showed both delayed onset as well as decreased severity and/or duration of disease | EAE clinical score, Days After Challenge 10 [1, 6]: — | EAE clinical score, Days After Challenge 11 [1, 6]: — | EAE clinical score, Days After Challenge 12 [1, 6]: 1 and — (2×) | EAE clinical score, Days After Challenge 13 [1, 6]: 3 and — (2×) | EAE clinical score, Days After Challenge 14 [1, 6]: 3 and 2 and 1 | EAE clinical score, Days After Challenge 15 [1, 6]: 3 and 2 and — | EAE clinical score, Days After Challenge 16 [1, 6]: — (2×) and 3 | EAE clinical score, Days After Challenge 17 [1, 6]: — (2×) and 3 | EAE clinical score, Days After Challenge 18 [1, 6]: —

RFGAGTRLTVK [IR5]
effectiveness of vaccination compared with other peptides [1, 3]: more effective than those observed with the mouse VDJ peptide or the Vβ8 peptide | onset, severity and duration of EAE [1, 3]: in the third, disease onset was markedly delayed | protection against clinical EAE (animals protected) [1, 3]: Two of three animals were totally protected | EAE clinical score, Days After Challenge 10 [1, 7]: — | EAE clinical score, Days After Challenge 11 [1, 7]: — | EAE clinical score, Days After Challenge 12 [1, 7]: — | EAE clinical score, Days After Challenge 13 [1, 7]: — | EAE clinical score, Days After Challenge 14 [1, 7]: — | EAE clinical score, Days After Challenge 15 [1, 7]: 2 and — (2×) | EAE clinical score, Days After Challenge 16 [1, 7]: 1 and — (2×) | EAE clinical score, Days After Challenge 17 [1, 7]: 1 and — (2×) | EAE clinical score, Days After Challenge 18 [1, 7]: 1 and — (2×) | EAE clinical score, Days After Challenge 19 ([1]; day 19, one rat per line, 50 μg JαTA39 peptide in CFA): 1 and — (2×) | EAE clinical score, Days After Challenge 20 ([1]; day 20, one rat per line, 50 μg JαTA39 peptide in CFA): — | histologic lesions / T cell infiltration of the CNS [2]: the two animals which were completely protected showed no histologic evidence of T cell infiltration of the CNS

C A S S D - S G N - V L Y F G E G S R (CASSDSGNVLYFGEGSR) [IR3]
onset, severity and duration of EAE [1, 3]: delays in onset were observed in some; also recorded: others showed both delayed onset as well as decreased severity and/or duration of disease | EAE clinical score, Days After Challenge 10 [1, 6]: 1 and — (2×) | EAE clinical score, Days After Challenge 11 [1, 6]: 3 and — (2×) | EAE clinical score, Days After Challenge 12 [1, 6]: 3 and 2 and — | EAE clinical score, Days After Challenge 13 [1, 6]: 3 (2×) and — | EAE clinical score, Days After Challenge 14 [1, 6]: 2 and 3 and — | EAE clinical score, Days After Challenge 15 [1, 6]: — | EAE clinical score, Days After Challenge 16 [1, 6]: — | EAE clinical score, Days After Challenge 17 [1, 6]: — | EAE clinical score, Days After Challenge 18 [1, 6]: —

C A S S D - S S N T E V F F G K (CASSDSSNTEVFFGK) [IR1]
onset, severity and duration of EAE [1, 3]: delays in onset were observed in some; also recorded: others showed both delayed onset as well as decreased severity and/or duration of disease | EAE clinical score, Days After Challenge 10 [1, 6]: — | EAE clinical score, Days After Challenge 11 [1, 6]: — | EAE clinical score, Days After Challenge 12 [1, 6]: — | EAE clinical score, Days After Challenge 13 [1, 6]: 2 and — and 1 | EAE clinical score, Days After Challenge 14 [1, 6]: 1 | EAE clinical score, Days After Challenge 15 [1, 6]: — and 3 and 1 | EAE clinical score, Days After Challenge 16 [1, 6]: — (2×) and 1 | EAE clinical score, Days After Challenge 17 [1, 6]: — | EAE clinical score, Days After Challenge 18 [1, 6]: —

SGDAGGGYE [VDJ (IFA), free VDJ peptide in PBS emulsified with incomplete Freund's adjuvant]
EAE clinical score, Days After Challenge 10 [1, 5]: — | EAE clinical score, Days After Challenge 11 [1, 5]: — | EAE clinical score, Days After Challenge 12 [1, 5]: 2 and 1 and — | EAE clinical score, Days After Challenge 13 [1, 5]: 3 | EAE clinical score, Days After Challenge 14 [1, 5]: 3 | EAE clinical score, Days After Challenge 15 [1, 5]: 3 | EAE clinical score, Days After Challenge 16 [1, 5]: — and 2 (2×) | EAE clinical score, Days After Challenge 17 [1, 5]: — | EAE clinical score, Days After Challenge 18 [1, 5]: —
